{"source": "patent US12479816B2", "about": "“20-HETE formation inhibitors” (UNIVERSITY OF PITTSBURGH—OF THE COMMONWEALTH SYSTEM OF …, priority 2019, dated 2025)"}
{"biological_target": "T1, rCYP4F2 (Homo sapiens, UniProt P78329)", "T1 sequence (P78329 5-520)": "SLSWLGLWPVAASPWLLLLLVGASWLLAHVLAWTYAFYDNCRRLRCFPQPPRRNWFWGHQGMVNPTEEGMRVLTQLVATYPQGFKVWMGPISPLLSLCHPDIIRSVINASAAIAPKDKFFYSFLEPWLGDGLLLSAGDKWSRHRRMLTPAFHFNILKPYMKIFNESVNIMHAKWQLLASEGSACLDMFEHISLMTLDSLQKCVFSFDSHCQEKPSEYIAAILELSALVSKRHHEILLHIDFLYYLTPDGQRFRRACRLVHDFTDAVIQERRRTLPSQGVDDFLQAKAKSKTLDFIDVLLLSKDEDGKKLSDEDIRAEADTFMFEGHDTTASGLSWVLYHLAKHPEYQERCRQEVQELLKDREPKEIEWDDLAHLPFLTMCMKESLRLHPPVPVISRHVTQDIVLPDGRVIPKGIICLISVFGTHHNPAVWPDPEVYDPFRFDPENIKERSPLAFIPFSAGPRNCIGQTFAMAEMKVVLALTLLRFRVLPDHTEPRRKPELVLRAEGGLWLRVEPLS", "assay": "Inhibition of 20-HETE formation at 250 or 500 nM in rCYP4F2 incubations", "type": "biochemical", "conditions": "500 nM compound; rCYP4F2 25 pmol/mL; read-out: rCYP4F2 % inh. @ 500 nM", "description": "(§1) To screen the inhibitory effects against 20-HETE formation, compounds were screened in HLM, RLM, RKM and rCYP4F2 microsomal incubations. Compounds dissolved in either 100% methanol or 100% DMSO to yield 10 mM stock solution. Microsomal incubations containing HLM, RLM, RKM (300 μg/ml) or rCYP4F2 (25 pmol/mL), AA (100 μM), NADPH (1 mM) treated with test compounds at various concentrations (500 nM or 250 nM) in a 1 ml total volume in incubation buffer (0.12 M potassium phosphate buffer containing 5 mM magnesium chloride). Reaction was started by adding NADPH to the incubates and was carried out at 37° C. in a shaking water bath for 20 min. Reaction was stopped by placing tubes on ice, followed by adding 125 μl 20-HETE-d6 as internal standard to each sample. Microsomal incubations were extracted with 3 ml ethyl ether twice, dried down under nitrogen gas and reconstituted in 125 μl 80:20 methanol:deionized H2O for analysis. 20-HETE formation was quantified using a validated UPLC-MS/MS assay and normalized by vehicle group. Each compound had three replications (n=3). Vehicle group was used as control to calculate percentage of 20-HETE formation rate. HET0016 (250 nM) was used as positive control. Incubates without NADPH group served as the negative control. An Acquity ultra performance LC autosampler (Waters, Milford, MA) was used to isolate 20-HETE on an UPLC BEH C18, 1.7 μm (2.1×100 mm) reversed-phase column (Waters, Milford, MA) protected by a guard column (2.1×5 mm; Waters, Milford, MA) of the same packing material. Column temperature was maintained at 55° C. Mobile phases consisted of 0.005% acetic acid, 5% acetonitrile in deionized water (A) and 0.005% acetic acid in acetonitrile (B). The flow rate for mobile phases is 0.5 ml/min. The initial mixture of mobile phase was 65:35 of A and B. Mobile phase B increased at 0.4 minutes after injection from 35% to 70% in a linear gradient over 4 minutes, and again increased to 95% over 0.5 minutes where it remained for 0.3 minutes. This was followed by a linear return to initial conditions over 0.1 minutes with a 1.5 minute pre-equilibration period prior to the next sample run. Total run time was 6.4 minutes for each injection. Injection volumes were 7.5 μl. Mass spectrometric analysis was carried out using a TSQ Quantum Ultra (Thermo Fisher Scientific, San Jose, CA) triple quadrupole mass spectrometer using heated electrospray ionization (HESI). Mass spectrometer was operated in negative selective reaction monitoring (SRM) mode with unit resolutions at both Q1 and Q3 set at 0.70 Da full width at half maximum. Scan time was set at 0.01 s and collision gas pressure was 1.3 mTorr. Quantitation of 20-HETE by SRM was performed by monitoring the m/z. Analytical data was acquired and analyzed using Xcaliber 3.0 data system (ThermoFinnigan, San Jose, CA).", "units": {"inhibition at 0.5 µM": "%"}}
{"smiles": "O=[N+]([O-])c1ccc(C2CCN(c3cn[nH]c3)CC2)cc1", "note": "[Compound 111, 4-(4-Nitrophenyl)-1-(1H-pyrazol-4-yl)piperidine]", "inhibition at 0.5 µM": 60.1}
{"smiles": "O=[N+]([O-])c1ccc(C2CCN(c3ccn[nH]3)CC2)cc1", "note": "[Compound 112, 4-(4-Nitrophenyl)-1-(1H-pyrazol-5-yl)piperidine]", "inhibition at 0.5 µM": 41.3}
{"smiles": "CS(=O)(=O)Nc1ccc(C2CCN(c3cn[nH]c3)CC2)cc1", "note": "[Compound 113, N-(4-(1-(1H-pyrazol-4-yl)piperidin-4-yl)phenyl)methanesulfonamide]", "inhibition at 0.5 µM": 67.6}
{"test_system": "20-HETE formation (CYP4) in HLM", "assay": "Inhibition of 20-HETE formation at 250 or 500 nM in HLM microsomal incubations", "type": "biochemical, human", "conditions": "500 nM compound; HLM 300 μg/ml, AA 100 μM, 20 min", "description": "as §1", "units": {"HLM % inh. @ 500 nM": "%"}}
{"smiles": "O=[N+]([O-])c1ccc(C2CCN(c3cn[nH]c3)CC2)cc1", "note": "[Compound 111, 4-(4-Nitrophenyl)-1-(1H-pyrazol-4-yl)piperidine]", "HLM % inh. @ 500 nM": 43.5}
{"smiles": "O=[N+]([O-])c1ccc(C2CCN(c3ccn[nH]3)CC2)cc1", "note": "[Compound 112, 4-(4-Nitrophenyl)-1-(1H-pyrazol-5-yl)piperidine]", "HLM % inh. @ 500 nM": 21.90}
{"smiles": "CS(=O)(=O)Nc1ccc(C2CCN(c3cn[nH]c3)CC2)cc1", "note": "[Compound 113, N-(4-(1-(1H-pyrazol-4-yl)piperidin-4-yl)phenyl)methanesulfonamide]", "HLM % inh. @ 500 nM": 30.5}
{"test_system": "20-HETE formation (CYP4) in RLM", "assay": "Inhibition of 20-HETE formation at 250 or 500 nM in RLM microsomal incubations", "type": "biochemical, rat", "conditions": "500 nM compound; RLM 300 μg/ml", "description": "as §1", "units": {"RLM % inh. @ 500 nM": "%"}}
{"smiles": "O=[N+]([O-])c1ccc(C2CCN(c3cn[nH]c3)CC2)cc1", "note": "[Compound 111, 4-(4-Nitrophenyl)-1-(1H-pyrazol-4-yl)piperidine]", "RLM % inh. @ 500 nM": 22.30}
{"smiles": "O=[N+]([O-])c1ccc(C2CCN(c3ccn[nH]3)CC2)cc1", "note": "[Compound 112, 4-(4-Nitrophenyl)-1-(1H-pyrazol-5-yl)piperidine]", "RLM % inh. @ 500 nM": 20.30}
{"smiles": "CS(=O)(=O)Nc1ccc(C2CCN(c3cn[nH]c3)CC2)cc1", "note": "[Compound 113, N-(4-(1-(1H-pyrazol-4-yl)piperidin-4-yl)phenyl)methanesulfonamide]", "RLM % inh. @ 500 nM": 14.30}
{"test_system": "not listed separately", "assay": "Turbidometric solubility determination", "type": "physicochemical", "conditions": "PBS with 1% DMSO, aqueous buffer, kinetic from dmso stock, room temperature, OD620, read-out: Max Solub", "description": "Solubility determinations shown in Table 3 were obtained turbidometrically and in a manner similar to the one described in Perez et al., J. Biomol. Screen, 2015, 20(2), 254-64. The method requires small volumes of 100× stock concentration drug solution to be prepared in DMSO 0, 0.23, 0.47, 0.94, 1.88, 3.75, 7.5, 15.0, 30.0 and […]. The stock drug concentrations are then diluted 1:100 added into triplicate wells containing PBS in a clear bottom 384 well microtiter to achieve final testing concentrations of 0, 2.3, 4.7, 9.4, 18.8, 37.5, 75, 150, 300, 600 μM in 1% DMSO. The plate is allowed to equilibrate with constant shaking for 2 hours at room temperature. The plate is then placed in a SpectroMax V plate reader to measure absorbance at 620 nm. Increase in absorbance is evident in test wells which precipitation of the compound is evident. The plot of OD620 vs. drug concentration is used to calculate the maximum solubility limit as determined by a statistically significant increase in absorbance above the background levels.", "units": {"solubility at 2 h": "µM"}}
{"smiles": "O=C1CCCN1Cc1ccc(C2CCN(c3cn[nH]c3)CC2)c(F)c1", "note": "[Compound 118, 1-(4-(1-(1H-Pyrazol-4-yl)piperidin-4-yl)-3-fluorobenzyl)pyrrolidin-2-one]", "solubility at 2 h": 443}
{"smiles": "Cl.O=C1CCCN1c1ccc(C2CCN(c3cn[nH]c3)CC2)cc1", "note": "[Compound 119, 1-(4-(1-(1H-Pyrazol-4-yl)piperidin-4-yl)phenyl)pyrrolidin-2-one hydrochloride]", "solubility at 2 h": 63}
{"smiles": "c1cc(C2CCN(c3cn[nH]c3)CC2)ccc1CN1CCOCC1", "note": "[Compound 121, 4-(4-(1-(1H-Pyrazol-4-yl)piperidin-4-yl)benzyl)morpholine]", "solubility at 2 h": 122}
{"smiles": "O=C1COCCN1c1ccc(C2CCN(c3cn[nH]c3)CC2)cc1", "note": "[Compound 122, 4-(4-(1-(1H-Pyrazol-4-yl)piperidin-4-yl)phenyl)morpholin-3-one]", "solubility at 2 h": 247}
{"smiles": "Fc1cc(C2CCN(c3cn[nH]c3)CC2)ccc1N1CCOCC1", "note": "[Compound 123, 4-(4-(1-(1H-Pyrazol-4-yl)piperidin-4-yl)-2-fluorophenyl)morpholine]", "solubility at 2 h": 85.5}
{"smiles": "Fc1cc(N2CCOCC2)ccc1C1CCN(c2cn[nH]c2)CC1", "note": "[Compound 124, 4-(4-(1-(1H-Pyrazol-4-yl)piperidin-4-yl)-3-fluorophenyl)morpholine]", "solubility at 2 h": 26.6}
{"smiles": "C[C@H](c1ccc(C2CCN(c3cn[nH]c3)CC2)cc1)N1CCCC1=O", "note": "[Compound 125, (R)-1-(1-(4-(1-(1H-pyrazol-4-yl)piperidin-4-yl)phenyl)ethyl)pyrrolidin-2-one]", "solubility at 2 h": "> 600"}
{"smiles": "C[C@@H](c1ccc(C2CCN(c3cn[nH]c3)CC2)cc1)N1CCCC1=O", "note": "[Compound 126, (S)-1-(1-(4-(1-(1H-pyrazol-4-yl)piperidin-4-yl)phenyl)ethyl)pyrrolidin-2-one]", "solubility at 2 h": "> 600"}
{"smiles": "COc1ccc(CC2CCN(c3cn[nH]c3)CC2)cc1", "note": "[Compound 127, 4-[(4-Methoxyphenyl)methyl]-1-(1H-pyrazol-4-yl)piperidine]", "solubility at 2 h": 151}
